From PubChem BioAssay (NCI) come the findings set out here.

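Briefly, cells in 96-well plates were exposed to five compound concentrations for 48 h, and endpoints were estimated by linear interpolation. TGI denotes the concentration required for complete inhibition of growth.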

Some test systems named below: SK-MEL-2 melanoma; BT-549 breast; IGROV1 ovarian; NCI-H522 lung; HT29 colon; EKVX NSCLC; PC-3 prostate; HOP-62 NSCLC; RXF 393 renal; CCRF-CEM leukemia; MALME-3M melanoma; HOP-92 NSCLC; TK-10 renal; SNB-75 CNS; CAKI-1 renal; OVCAR-3 ovarian; MDA-MB-435; MOLT-4 leukemia; NCI-H23 lung; NCI-H226 lung.
Assay in all cases: NCI-60 cell line screen, 48 h

Regarding `Nc1ncnc2c1ccn2CC#CCO`, the TGI in the assay with SK-MEL-2 melanoma, in the assay with BT-549 breast, with IGROV1 ovarian, in the assay with NCI-H522 lung, with HT29 colon and in the assay on EKVX NSCLC was more than 100 µM in each case. For the same molecule, the TGI with PC-3 prostate, in the assay with HOP-62 NSCLC, with RXF 393 renal, with CCRF-CEM leukemia, with MALME-3M melanoma and with HOP-92 NSCLC was more than 100 µM throughout. For the same molecule, the TGI in the assay with TK-10 renal, in the assay with SNB-75 CNS, in the assay with CAKI-1 renal, with OVCAR-3 ovarian, with MDA-MB-435 and in the assay on MOLT-4 leukemia was more than 100 µM each time. In the assay with NCI-H23 lung, this molecule showed a TGI of more than 100 µM.

For the molecule `CCCCCN1C(=O)C(Cc2ccccc2)N=C(c2ccc(O)cc2)c2cc(Cl)ccc21` (configuration not stated), the TGI in the assay on SK-MEL-2 melanoma stood at 34.4 µM; in the assay on BT-549 breast it was 33.4 µM; in the assay with IGROV1 ovarian it was 23.9 µM; in the assay with NCI-H522 lung, 17.2 µM; with HT29 colon, 25.6 µM; in the assay on EKVX NSCLC it was 25.6 µM. In addition, the TGI in the assay with PC-3 prostate is 27.3 µM; in the assay on HOP-62 NSCLC it was 52.8 µM; in the assay with CCRF-CEM leukemia, more than 100 µM; with MALME-3M melanoma it was 23.6 µM; in the assay with HOP-92 NSCLC, 25 µM; with TK-10 renal it was 31.2 µM. Also, the TGI in the assay on SNB-75 CNS was found to be 23.7 µM; in the assay on CAKI-1 renal, 35.1 µM; in the assay on OVCAR-3 ovarian it was 45.1 µM; in the assay with MDA-MB-435, 24.4 µM; with MOLT-4 leukemia, 26.3 µM; in the assay with NCI-H226 lung, 26.3 µM. In addition, in the assay on NCI-H23 lung, the TGI is 17.7 µM.

In the case of `CCOC(=O)/C=C(/C(=O)OCC)n1ccc(=O)n(Cc2cn(CCCCOC(C)=O)nn2)c1=O`, the TGI is more than 100 µM in the assay on SK-MEL-2 melanoma; more than 100 µM in the assay with BT-549 breast; more than 100 µM in the assay with IGROV1 ovarian; 29.3 µM with NCI-H522 lung; more than 100 µM in the assay with HT29 colon; more than 100 µM in the assay on EKVX NSCLC. Also, the TGI in the assay on PC-3 prostate was more than 100 µM; with HOP-62 NSCLC, more than 100 µM; in the assay on RXF 393 renal, more than 100 µM; in the assay with CCRF-CEM leukemia it was 35.3 µM; with HOP-92 NSCLC, 20.6 µM; with TK-10 renal, more than 100 µM. Further, the TGI with SNB-75 CNS was more than 100 µM; in the assay with CAKI-1 renal, 53.6 µM; with OVCAR-3 ovarian, more than 100 µM; in the assay on MDA-MB-435, more than 100 µM; in the assay on MOLT-4 leukemia, more than 100 µM; in the assay with NCI-H226 lung, more than 100 µM. Moreover, the TGI in the assay on NCI-H23 lung is more than 100 µM.

On to `COc1ccc2nc3c4c(nccc4c2c1)-c1ncccc1C3=O`, for which the TGI with SK-MEL-2 melanoma was determined as 1.43 µM; with BT-549 breast, 0.528 µM; in the assay with IGROV1 ovarian, 0.279 µM; with HT29 colon it was 1.14 µM; in the assay with EKVX NSCLC it was 0.903 µM; in the assay with PC-3 prostate, 3.14 µM. The TGI turned out to be 0.402 µM in the assay on HOP-62 NSCLC; 1.02 µM in the assay with RXF 393 renal; 2.57 µM in the assay with CCRF-CEM leukemia; 0.291 µM in the assay on MALME-3M melanoma; 12.3 µM with HOP-92 NSCLC; 0.613 µM with TK-10 renal. The TGI in the assay on SNB-75 CNS was determined as 0.378 µM; in the assay on CAKI-1 renal, 1.83 µM; in the assay with OVCAR-3 ovarian it was 0.0569 µM; with MDA-MB-435 it was 0.148 µM; with MOLT-4 leukemia, 5.31 µM; with NCI-H226 lung it was 0.445 µM. Also, in the assay on NCI-H23 lung, the TGI came out at 0.265 µM.

`CC1(C=O)CC(CCc2ccccc2)NC1Cc1ccc(O)cc1` (configuration not stated): the TGI was 29 µM in the assay on SK-MEL-2 melanoma; 39.4 µM with BT-549 breast; 30.8 µM with IGROV1 ovarian; 35 µM in the assay with NCI-H522 lung; 29.5 µM in the assay with HT29 colon; 29 µM in the assay with EKVX NSCLC. Moreover, the TGI in the assay with PC-3 prostate was determined as 26.7 µM; in the assay on HOP-62 NSCLC, 36.4 µM; in the assay with RXF 393 renal, 31 µM; in the assay with CCRF-CEM leukemia it was 82.7 µM; in the assay on HOP-92 NSCLC, 30 µM; in the assay on TK-10 renal it was 31.8 µM. The TGI with SNB-75 CNS was determined as 28.6 µM; in the assay with CAKI-1 renal it was 29.3 µM; with OVCAR-3 ovarian, 33.2 µM; with MDA-MB-435, 34 µM; in the assay with MOLT-4 leukemia, 38.2 µM; with NCI-H226 lung, 31.5 µM. Also, in the assay with NCI-H23 lung, the TGI came to 43.5 µM.

For `Nc1ccc(Oc2ccc(C34CC5C6CC7(c8ccc(Oc9ccc(N)cc9)cc8)CC5C(C3)C(C7)C6C4)cc2)cc1`, the TGI in the assay with SK-MEL-2 melanoma, in the assay with BT-549 breast, in the assay with IGROV1 ovarian, in the assay on NCI-H522 lung, with HT29 colon and in the assay with EKVX NSCLC was more than 100 µM throughout. The TGI in the assay with PC-3 prostate, in the assay on HOP-62 NSCLC, in the assay on RXF 393 renal, in the assay with CCRF-CEM leukemia, in the assay on MALME-3M melanoma and with HOP-92 NSCLC was more than 100 µM in each case. The TGI in the assay with TK-10 renal, with CAKI-1 renal, in the assay on OVCAR-3 ovarian, in the assay on MDA-MB-435, with MOLT-4 leukemia and in the assay on NCI-H226 lung was more than 100 µM each time. Further, the TGI in the assay on NCI-H23 lung is more than 100 µM.

Consider `COc1cccc(CCn2c(N)c(-c3cc(Cl)cc(Cl)c3)c3ccc([N+](=O)[O-])cc3c2=O)c1`, for which the TGI in the assay with SK-MEL-2 melanoma was more than 31.4 µM; with BT-549 breast, more than 59.5 µM; with IGROV1 ovarian, 22.7 µM; in the assay on NCI-H522 lung, more than 26.6 µM; in the assay with HT29 colon it was more than 100 µM; with EKVX NSCLC it was more than 100 µM. Further, the TGI in the assay with PC-3 prostate was more than 61.9 µM; in the assay with HOP-62 NSCLC it was more than 100 µM; with MALME-3M melanoma, 32.6 µM; in the assay with HOP-92 NSCLC, 7.93 µM; with TK-10 renal, more than 100 µM; in the assay on SNB-75 CNS, more than 100 µM. The TGI in the assay with CAKI-1 renal was 41.7 µM; with OVCAR-3 ovarian it was more than 100 µM; in the assay with MDA-MB-435, more than 100 µM; in the assay with MOLT-4 leukemia it was more than 100 µM; in the assay with NCI-H226 lung it was more than 53.5 µM; with NCI-H23 lung, 5.99 µM.
